Test results: patent publication US8372430B2, “Compositions, methods, and kits useful for the alleviation of gastrointestinal effects” (priority 2002, dated 2013)

Assays:
[1] = tested on: overweight human subject; test: Example 5: XENICAL regimen changed to XENICAL plus behenic acid capsules in an overweight human subject; type: in vivo; conditions: behenic acid 1.2 g capsule with XENICAL (120 mg orlistat) at each meal
Procedure: An overweight human subject is given a therapeutic dose of XENICAL@ (360 mg orlistat per day/three doses of 120 mg orlistat with each meal) to assist in the reduction of body weight.
When these symptoms are first observed, the regimen is modified to a combination of XENICAL® and behenic acid. At each meal, the subject consumes two capsules. The first capsule is XENICAL® (120 mg orlistat) while the second capsule contains the behenic acid (1.2 g). These capsules are co-packaged in a kit for the convenience of the subject.

[2] = tested on: male, Sprague-Dawley rats; test: Fur appearance score: separation of excreted dietary oil from fecal matter in rats fed food compositions; type: in vivo, rat; conditions: food with 0.04% orlistat, no calcium stearate, ad libitum 11 days, assessed days 7 and 11; scale 1 (no oil visible on fur) to 5 (>90% of fur oiled)
Source text: Groups of male, Sprague-Dawley rats (commercially available from Harlan Labs, Indianapolis, Ind.), were presented with a composition, which was a food composition, containing either 0.04% orlistat, by weight of the composition, or the combination of 0.04% orlistat and 1%, 0.5%, or 0.25% calcium stearate, all by weight of the composition. The fat content of each composition provided 30% of the consumed energy of the rat. Another group of rats (also male, Sprague Dawley, commercially available from Harlan Labs, Indianapolis, Ind.) were presented with the same food compositions, except devoid of orlistat and calcium stearate (“control compositions”). All rats consumed their respective compositions ad libitum for 11 days.
On the seventh and eleventh days of these dietary regimens, the appearance of each rat was viewed by assessors not aware of the identity of composition consumed by the rats. Separation of oil from the other fecal matter of each rat was determined by the use of a scale that quantified the fraction of the rat's fur that was coated with excreted dietary oil. […] Intermediate scores of “2,” “3,” and “4” indicated partial covering of the rat's fur, with “2” corresponding to approximately 10% coverage or less, “3” corresponding to approximately greater than 10% to approximately 50% coverage, and “4” corresponding to approximately greater than 50% to approximately 90% coverage.

[3] = tested on: overweight human subject; test: Example 4: XENICAL regimen with separate magnesium stearate wafer in an overweight human subject; type: in vivo
Procedure: XENICAL® is prescribed to an overweight human subject at a therapeutic dose of 120 mg orlistat taken with each of three daily meals. This dose causes a reduction in the absorption of dietary fat such that total caloric intake by the subject is reduced by approximately 10%, relative to the subjects normal dietary energy intake. […] In particular, magnesium stearate is provided at an amount of 1 gram incorporated into a wafer that is consumed with each meal, resulting in a total consumption of 3 grams per day of magnesium stearate. […] The efficacy of the XENICAL® is unaffected by the addition of magnesium stearate to the diet.

CCCCCCCCCCCCCCCCCCCCCC(=O)O [behenic acid]
state of the excreted fat [1]: stiffened

CCCCCCCCCCCC(CC1OC(=O)C1CCCCCC)OC(=O)C(CC(C)C)NC=O (stereo not shown) [orlistat, tetrahydrolipstatin]
mean fur appearance score [2]: 2.4

magnesium stearate
effect on gastrointestinal discomfort and anal leakage of unabsorbed oil ([3]; 1 gram magnesium stearate in a wafer with each meal (3 grams per day), together with XENICAL): prevents the gastrointestinal discomfort and anal leakage of unabsorbed oil | efficacy of XENICAL on addition of magnesium stearate to the diet ([3]; 3 grams per day magnesium stearate with XENICAL 120 mg orlistat per meal): unaffected
